Laboratory results taken from patent US6391344B2, “Method of promoting synthesis of nerve growth factor” (Nagase & Company, Ltd., priority 1999, dated 2002).

Test system: Human glioblastoma cells (T98G, Cell line)
Assay: Promotion of NGF synthesis: NGF content in culture supernatant by enzyme immunoassay
Type: cell-based
Conditions: for content of NGF in the sample solution as compared with the systems not containing any effective ingredient: result in words, both tested concentrations; for content of NGF in the sample solution as compared with the systems not containing any effective ingredient / NGF Content in sample solution: T98G cells; for NGF Content in sample solution: 4 days cultivation, mean ± standard deviation; for Relative NGF content: ratio of example solution to comparative example solution
Description: Human glioblastoma cells (T98G, Cell line) were seeded in a MEM medium containing fetal bovine serum (10%; Gibco), sodium pyruvate (×1; Gibco) and nonessential amino acids (×1; Gibco) in wells of a flat-bottom 96-well plate (Corning), in a cell density of 2×10^4/well, and cultivated in a CO2 incubator (37° C., 5% CO2) for 3 days. The medium was then replaced by an Opti-MEM medium (containing 5 mg/ml of bovine serum albumin). The cultivation was continued for further 6 days with replacing the medium at intervals of 3 days.
[…] After the cultivation, the supernatant was taken as a sample solution.
On the other hand, 1 ug/ml of an anti-NGF antibody (Promega) solution (50 ul) was added to each well of a 96-well microplate (Nunc), and the plate was allowed to stand overnight at 4° C. After washing the plate with PBS(−) (Nissui Pharmaceuticals), 1% of a bovine serum albumin (Sigma) solution (100 ul) was added to each well of the plate and the plate was allowed to stand at room temperature for 4 hrs. Subsequently, the plate was washed with PBS (−) and the above sample solution (50 ul) was added to each well of the plate. After the reaction at room temperature for one hour, the plate was washed with PBS (−).
Subsequently, 0.4 unit/ml of an beta-galactosidase-labeled anti-NGF antibody (Boehringer Mannheim) solution (50 ul) was added to each well of the plate, and allowed to react at room temperature for one hour. After washing the plate with PBS (−), 0.5 mg/ml of a 4-methylumbelliferyl-beta-D-galactoside solution (200 ul) was added to each well of the plate, and allowed to react overnight at room temperature. The fluorescence intensity of 4-methylumbelliferone produced was measured on a fluorescence plate reader, and the content of NGF contained in the sample solution was determined using a standard curve obtained from a standard solution (human beta-NGF; PEPRO TECH EC).

[1] = 20 uM effective ingredient in medium
[2] = 100 uM effective ingredient in medium

Row | SMILES | content of NGF in the sample solution as compared with the systems not containing any effective ingredient | NGF Content in sample solution [1] [pg/mL] | Relative NGF content [1] | NGF Content in sample solution [2] [pg/mL] | Relative NGF content [2]
1 | CC(C)c1cc2c(c(O)c1O)[C@@]13CCCC(C)(C)[C@@H]1C[C@@H]2OC3=O [carnosol of the formula (II)] | increases |  |  |  | 
2 | CC(C)c1cc2c(c(O)c1O)[C@@]1(C(=O)O)CCCC(C)(C)[C@@H]1CC2 [carnosic acid of the formula (I)] | increases |  |  |  | 
3 | CC(C)c1cc2c(c(O)c1O)[C@@]13CCCC(C)(C)C1C[C@@H]2OC3=O (stereo partly shown) [Carnosol of formula (II), carnosol] |  | 35.4 ± 6.9 | 5.5 | 39.9 ± 2.3 | 6.2
4 | CC(C)c1cc2c(c(O)c1O)[C@@]1(C(=O)O)CCCC(C)(C)C1CC2 (stereo partly shown) [Carnosic acid of formula (I), carnosic acid] |  | 46.0 ± 7.4 | 7.2 | 158.5 ± 16.6 | 24.8
